From patent publication US12139492B2 (Endotarget Inc., priority 2021, dated 2024)
pIC50: −log10 of the molar value.

How the values were obtained:
BTK = BTK (Homo sapiens, UniProt Q06187); assay: Degradation of BTK protein in Namalwa cells (Western blot; DC50, Dmax); details: for DC50: read-out: DC50 (BTK degradation), concentration giving 50% reduction of BTK expression level, cell line not given; for Dmax: read-out: Dmax (BTK degradation)
JeKo-1 cells = assay: Antiproliferative effect, MTS cell viability assay, JeKo-1 cells; format: cell-based; details: Homo sapiens; JeKo-1 mantle cell lymphoma cells; read-out: IC50 (anti-proliferation) JeKO-1 cells
Procedure, shortened: (§1)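 Steps: seed B-cell lymphoma line; add compound at 0, 0.001, 0.01, 0.1, 1 or 10 μM; incubate 72 h; add MTS and read reduced tetrazolium (formazan) absorbance at 490 nm.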

Mino cells = assay: Antiproliferative effect, MTS cell viability assay, Mino cells; format: cell-based; details: Homo sapiens, MINO, Mino mantle cell lymphoma cells; read-out: IC50 (anti-proliferation) Mino cells
Procedure, shortened: as §1

BTK, sequence (Q06187 whole entry): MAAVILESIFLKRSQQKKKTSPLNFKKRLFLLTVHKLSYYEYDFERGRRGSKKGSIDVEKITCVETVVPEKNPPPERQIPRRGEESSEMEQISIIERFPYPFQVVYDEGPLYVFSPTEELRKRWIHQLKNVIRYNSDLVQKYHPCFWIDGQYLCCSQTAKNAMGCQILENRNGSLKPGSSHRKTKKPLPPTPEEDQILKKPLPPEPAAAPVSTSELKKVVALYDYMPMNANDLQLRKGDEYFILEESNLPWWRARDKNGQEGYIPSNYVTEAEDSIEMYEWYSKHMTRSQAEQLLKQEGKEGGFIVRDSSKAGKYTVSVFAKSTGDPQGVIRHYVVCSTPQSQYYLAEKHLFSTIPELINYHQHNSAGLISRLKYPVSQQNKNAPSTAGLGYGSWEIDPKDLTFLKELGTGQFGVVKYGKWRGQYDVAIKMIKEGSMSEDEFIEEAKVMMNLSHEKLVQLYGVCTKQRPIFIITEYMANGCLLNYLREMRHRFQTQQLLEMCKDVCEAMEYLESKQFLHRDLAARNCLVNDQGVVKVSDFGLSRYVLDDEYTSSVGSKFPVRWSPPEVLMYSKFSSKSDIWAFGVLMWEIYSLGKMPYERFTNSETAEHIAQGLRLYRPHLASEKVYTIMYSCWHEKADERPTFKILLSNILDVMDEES

Row | DC50 (BTK) [nM] | Dmax (BTK) [%] | SMILES | pIC50 (JeKo-1 cells) | pIC50 (Mino cells)
1 | < 10 | > 90 | Nc1ncnc2c1c(-c1ccc(Oc3ccccc3)cc1)nn2C1CCN(C(=O)N2CC(N3CCN(c4ccc5c(c4)C(=O)N([C@H]4CCC(=O)NC4=O)C5=O)CC3)C2)CC1 [Compound 483, (S)-5-(4-(1-(4-(4-amino-3-(4-phenoxyphenyl)-1H-pyrazolo[3,4-b]pyrimidin-1-yl)piperidine-1-carbonyl)azetidin-3-yl)piperazin-1-yl)-2-(2,6-dioxopiperidin-3-yl)isoindoline-1,3-dione] | 5.00 to 6.00 | > 6.00
2 | < 10 | > 90 | Nc1ncnc2c1c(-c1ccc(Oc3ccccc3)cc1)nn2C1CCN(C(=O)N2CC(N3CCN(c4ccc5c(c4)C(=O)N([C@@H]4CCC(=O)NC4=O)C5=O)CC3)C2)CC1 [Compound 485, (R)-5-(4-(1-(4-(4-amino-3-(4-phenoxyphenyl)-1H-pyrazolo[3,4-d]pyrimidin-1-yl)piperidine-1-carbonyl)azetidin-3-yl)piperazin-1-yl)-2-(2,6-dioxopiperidin-3-yl)isoindoline-1,3-dione] | > 6.00 | > 6.00
3 | < 10 | > 90 | Nc1ncnc2c1c(-c1ccc(Oc3ccccc3)cc1)nn2C1CCN(C(=O)N2CC(N3CCN(c4ccc5c(c4)CN([C@@H]4CCC(=O)NC4=O)C5=O)CC3)C2)CC1 [Compound 486, (R)-3-(5-(4-(1-(4-(4-amino-3-(4-phenoxyphenyl)-1H-pyrazolo[3,4-d]pyrimidin-1-yl)piperidine-1-carbonyl)azetidin-3-yl)piperazin-1-yl)-1-oxoisoindolin-2-yl)piperidine-2,6-dione] | > 6.00 | > 6.00
4 | < 10 | > 90 | Nc1ncnc2c1c(-c1ccc(Oc3ccccc3)cc1)nn2[C@@H]1CCCN(C(=O)N2CC(N3CCN(c4ccc5c(c4)C(=O)N(C4CCC(=O)NC4=O)C5=O)CC3)C2)C1 (stereo partly drawn) [Compound 487, 5-(4-(1-((R)-3-(4-amino-3-(4-phenoxyphenyl)-1H-pyrazolo[3,4-d]pyrimidin-1-yl)piperidine-1-carbonyl)azetidin-3-yl)piperazin-1-yl)-2-(2,6-dioxopiperidin-3-yl)isoindoline-1,3-dione] | > 6.00 | > 6.00
5 | < 10 | > 90 | Nc1ncnc2c1c(-c1ccc(Oc3ccccc3)cc1)nn2[C@@H]1CCCN(C(=O)N2CC(N3CCN(c4ccc5c(c4)CN(C4CCC(=O)NC4=O)C5=O)CC3)C2)C1 (stereo partly drawn) [Compound 488, 3-(5-(4-(1-((R)-3-(4-amino-3-(4-phenoxyphenyl)-1H-pyrazolo[3,4-d]pyrimidin-1-yl)piperidine-1-carbonyl)azetidin-3-yl)piperazin-1-yl)-1-oxoisoindolin-2-yl)piperidine-2,6-dione] | > 6.00 | > 6.00
6 | < 10 | > 90 | Nc1ncnc2c1c(-c1ccc(Oc3ccccc3)cc1)nn2[C@@H]1CCCN(C(=O)N2CC(N3CCN(c4ccc5c(c4)C(=O)N([C@H]4CCC(=O)NC4=O)C5=O)CC3)C2)C1 [Compound 489, 5-(4-(1-((R)-3-(4-amino-3-(4-phenoxyphenyl)-1H-pyrazolo[3,4-d]pyrimidin-1-yl)piperidine-1-carbonyl)azetidin-3-yl)piperazin-1-yl)-2-((S)-2,6-dioxopiperidin-3-yl)isoindoline-1,3-dione] | > 6.00 | > 6.00
7 | 10 to 50 | > 90 | Nc1ncnc2c1c(-c1ccc(Oc3ccccc3)cc1)nn2[C@@H]1CCCN(C(=O)N2CC(N3CCN(c4ccc5c(c4)C(=O)N([C@@H]4CCC(=O)NC4=O)C5=O)CC3)C2)C1 [Compound 491, 5-(4-(1-((R)-3-(4-amino-3-(4-phenoxyphenyl)-1H-pyrazolo[3,4-d]pyrimidin-1-yl)piperidine-1-carbonyl)azetidin-3-yl)piperazin-1-yl)-2-((R)-2,6-dioxopiperidin-3-yl)isoindoline-1,3-dione] | > 6.00 | > 6.00
8 | < 10 | > 90 | Nc1ncnc2c1c(-c1ccc(Oc3ccccc3)cc1)nn2[C@@H]1CCCN(C(=O)N2CC(N3CCN(c4ccc5c(c4)CN([C@@H]4CCC(=O)NC4=O)C5=O)CC3)C2)C1 [Compound 492, (R)-3-(5-(4-(1-((R)-3-(4-amino-3-(4-phenoxyphenyl)-1H-pyrazolo[3,4-d]pyrimidin-1-yl)piperidine-1-carbonyl)azetidin-3-yl)piperazin-1-yl)-1-oxoisoindolin-2-yl)piperidine-2,6-dione] | > 6.00 | > 6.00
9 | 10 to 50 | > 90 | NC1=NC=NC2C1C(c1ccc(Oc3ccccc3)cc1)=NN2C1CCN(C(=O)N2CC(C3CN(c4ccc5c(c4)C(=O)N(C4CCC(=O)NC4=O)C5=O)C3)C2)CC1 (stereo not drawn) [Compound 493, 5-(1′-(4-(4-amino-3-(4-phenoxyphenyl)-3a,7a-dihydro-1H-pyrazolo[3,4-d]pyrimidin-1-yl)piperidine-1-carbonyl)-[3,3′-biazetidin]-1-yl)-2-(2,6-dioxopiperidin-3-yl)isoindoline-1,3-dione] | > 6.00 | > 6.00
10 | < 10 | > 90 | NC1=NC=NC2C1C(c1ccc(Oc3ccccc3)cc1)=NN2C1CCN(C(=O)N2CC(C3CN(c4ccc5c(c4)CN(C4CCC(=O)NC4=O)C5=O)C3)C2)CC1 (stereo not drawn) [Compound 494, 3-(5-(1′-(4-(4-amino-3-(4-phenoxyphenyl)-3a,7a-dihydro-1H-pyrazolo[3,4-d]pyrimidin-1-yl)piperidine-1-carbonyl)-[3,3′-biazetidin]-1-yl)-1-oxoisoindolin-2-yl)piperidine-2,6-dione] | > 6.00 | > 6.00
11 | < 10 | > 90 | NC1=NC=NC2C1C(c1ccc(Oc3ccccc3)cc1)=NN2C1CCN(C(=O)N2CC(C3CN(c4ccc5c(c4)CN([C@H]4CCC(=O)NC4=O)C5=O)C3)C2)CC1 (stereo partly drawn) [Compound 495, (3S)-3-(5-(1′-(4-(4-amino-3-(4-phenoxyphenyl)-3a,7a-dihydro-1H-pyrazolo[3,4-d]pyrimidin-1-yl)piperidine-1-carbonyl)-[3,3′-biazetidin]-1-yl)-1-oxoisoindolin-2-yl)piperidine-2,6-dione] | > 6.00 | > 6.00
12 | < 10 | > 90 | NC1=NC=NC2C1C(c1ccc(Oc3ccccc3)cc1)=NN2C1CCN(C(=O)N2CC(C3CN(c4ccc5c(c4)CN([C@@H]4CCC(=O)NC4=O)C5=O)C3)C2)CC1 (stereo partly drawn) [Compound 496, (3R)-3-(5-(1′-(4-(4-amino-3-(4-phenoxyphenyl)-3a,7a-dihydro-1H-pyrazolo[3,4-d]pyrimidin-1-yl)piperidine-1-carbonyl)-[3,3′-biazetidin]-1-yl)-1-oxoisoindolin-2-yl)piperidine-2,6-dione] | > 6.00 | > 6.00
13 | 10 to 50 | > 90 | NC1=NC=NC2C1C(c1ccc(Oc3ccccc3)cc1)=NN2[C@@H]1CCCN(C(=O)N2CC(C3CN(c4ccc5c(c4)C(=O)N(C4CCC(=O)NC4=O)C5=O)C3)C2)C1 (stereo partly drawn) [Compound 497, 5-(1′-((3R)-3-(4-amino-3-(4-phenoxyphenyl)-3a,7a-dihydro-1H-pyrazolo[3,4-d]pyrimidin-1-yl)piperidine-1-carbonyl)-[3,3′-biazetidin]-1-yl)-2-(2,6-dioxopiperidin-3-yl)isoindoline-1,3-dione] | > 6.00 | > 6.00
14 | < 10 | > 90 | NC1=NC=NC2C1C(c1ccc(Oc3ccccc3)cc1)=NN2[C@@H]1CCCN(C(=O)N2CC(C3CN(c4ccc5c(c4)CN(C4CCC(=O)NC4=O)C5=O)C3)C2)C1 (stereo partly drawn) [Compound 498, 3-(5-(1′-((3R)-3-(4-amino-3-(4-phenoxyphenyl)-3a,7a-dihydro-1H-pyrazolo[3,4-d]pyrimidin-1-yl)piperidin-1-carbonyl)-[3,3′-biazetidin]-1-yl)-1-oxoisoindolin-2-yl)piperidine-2,6-dione] | > 6.00 | > 6.00
15 | 10 to 50 | > 75 | NC1=NC=NC2C1C(c1ccc(Oc3ccccc3)cc1)=NN2C1CCN(C2CN(C(=O)N3CC(C4CN(c5ccc6c(c5)C(=O)N(C5CCC(=O)NC5=O)C6=O)C4)C3)C2)CC1 (stereo not drawn) [Compound 499, 5-(1′-(3-(4-(4-amino-3-(4-phenoxyphenyl)-3a,7a-dihydro-1H-pyrazolo[3,4-d]pyrimidin-1-yl)piperidin-1-yl)azetidine-1-carbonyl)-[3,3′-biazetidin]-1-yl)-2-(2,6-dioxopiperidin-3-yl)isoindoline-1,3-dione] | 5.00 to 6.00 | > 6.00
16 | 10 to 50 | > 90 | NC1=NC=NC2C1C(c1ccc(Oc3ccccc3)cc1)=NN2C1CCN(C2CN(C(=O)N3CC(C4CN(c5ccc6c(c5)CN(C5CCC(=O)NC5=O)C6=O)C4)C3)C2)CC1 (stereo not drawn) [Compound 500, 3-(5-(1′-(3-(4-(4-amino-3-(4-phenoxyphenyl)-3a,7a-dihydro-1H-pyrazolo[3,4-d]pyrimidin-1-yl)piperidin-1-yl)azetidine-1-carbonyl)-[3,3′-biazetidin]-1-yl)-1-oxoisoindolin-2-yl)piperidine-2,6-dione] | 5.00 to 6.00 | > 6.00
17 | 10 to 50 | > 90 | NC1=NC=NC2C1C(c1ccc(Oc3ccccc3)cc1)=NN2C1CCCN(C2CN(C(=O)N3CC(C4CN(c5ccc6c(c5)C(=O)N(C5CCC(=O)NC5=O)C6=O)C4)C3)C2)C1 (stereo not drawn) [Compound 501] | > 6.00 | 5.00 to 6.00
18 | 10 to 50 | > 90 | NC1=NC=NC2C1C(c1ccc(Oc3ccccc3)cc1)=NN2C1CCCN(C2CN(C(=O)N3CC(C4CN(c5ccc6c(c5)CN(C5CCC(=O)NC5=O)C6=O)C4)C3)C2)C1 (stereo not drawn) [Compound 502] | > 6.00 | > 6.00
